Measurements reported in PMC5681660, “Reduced hepatitis B and D viral entry using clinically applied drugs as novel inhibitors of the bile acid transporter NTCP” (Scientific Reports, 2017).
Where a name gives a salt, the structure may show the parent alone. Read-outs that look alike come from different tables or passages of the source. Non-standard residues stand in square brackets, D forms with d. Residues, ends and D or L forms follow the SMILES beside them. *: point of attachment. Sta = CC(C)C[C@H](N)[C@@H](O)CC(=O)O; Isovaleryl = CC(C)CC(=O)*

Key:
human NTCP [1] = biological target: T1, human NTCP (Homo sapiens, UniProt Q14973); experiment: Screening taurocholate uptake assay (96-well, [14C]taurocholate, 10 µM drug)
T1 sequence (Q14973 1-349): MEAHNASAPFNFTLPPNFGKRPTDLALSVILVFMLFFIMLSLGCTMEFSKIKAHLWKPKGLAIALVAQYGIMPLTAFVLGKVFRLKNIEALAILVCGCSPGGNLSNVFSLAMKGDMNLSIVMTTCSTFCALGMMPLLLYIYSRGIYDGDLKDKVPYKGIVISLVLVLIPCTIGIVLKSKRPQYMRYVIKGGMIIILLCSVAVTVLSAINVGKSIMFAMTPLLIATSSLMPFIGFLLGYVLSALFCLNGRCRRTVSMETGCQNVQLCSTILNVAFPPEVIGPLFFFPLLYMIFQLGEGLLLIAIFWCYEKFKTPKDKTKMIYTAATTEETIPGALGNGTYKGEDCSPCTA

human NTCP [2] = biological target: T1, human NTCP; experiment: Screening fluorescent competitive Myrcludex B-FITC binding assay (96-well, 10 µM drug)
[3] = combined ranking from functional and binding screening assays
[4] = screen, 10 µM drug, taurocholate uptake
[5] = screen, 10 µM drug, Myrcludex B-FITC binding
[6] = Prestwick library screen, taurocholate uptake, 10 µM drug
[7] = ranking score beside the functional and binding assay B-scores of the screen
[8] = Prestwick library screen, Myrcludex B-FITC binding, 10 µM drug
[9] = Prestwick library screen, 10 µM drug, B-score of taurocholate uptake
[10] = combined ranking from functional and binding assay B-scores
[11] = Prestwick library screen, 10 µM drug, B-score of Myrcludex B-FITC binding

Row | Compound | Ranking score (human NTCP [1]; [3]) | B-score functional assay (human NTCP [1]; [4]) | B-score binding assay (human NTCP [2]; [5]) | B-score functional assay (human NTCP [1]; [6]) | Ranking score (human NTCP [1]; [7]) | B-score binding assay (human NTCP [2]; [8]) | further results
1 | C=CC[N@@+]12CC[C@@]34c5ccccc5N5/C=C6/[C@H]7C[C@H]8[C@@]9(CC[N@@+]8(CC=C)C/C7=C/CO)c7ccccc7N(/C=C(/[C@@H](C[C@@H]31)/C(=C\CO)C2)[C@H]54)[C@@H]69.[Cl-].[Cl-] [Alcuronium chloride] | 375.739 | 1.096 | -1.767 |  |  |  | 
2 | NC12CC3CC(CC(C3)C1)C2.O=C(O)/C=C/C(=O)O [Adamantamine fumarate] |  |  |  | -0.004 | 748.28 | 0.399 | 
3 | CN(C)[C@@H]1C(O)=C(C(N)=O)C(=O)[C@@]2(O)C(O)=C3C(=O)c4c(O)cccc4[C@@](C)(O)[C@H]3C[C@@H]12 [Tetracycline hydrochloride] |  |  |  | 0.067 | 755.57 | 0.201 | 
4 | Cl.Nc1c(Br)cc(Br)cc1CNC1CCC(O)CC1 (stereo not drawn) [Ambroxol hydrochloride] |  |  |  |  |  |  | B-score functional assay (human NTCP [1]; [9]): 0.006; Ranking score (human NTCP [1]; [10]): 860.528; B-score binding assay (human NTCP [2]; [11]): 1.513
5 | O=C(NCCNCC(O)COc1ccc(O)cc1)N1CCOCC1 (stereo not drawn) [Xamoterol hemifumarate] |  |  |  |  |  |  | B-score functional assay (human NTCP [1]): 0.875; Ranking score (human NTCP [1]): 564.879; B-score binding assay (human NTCP [2]): -0.721
6 | CC(C)CC(=O)N[C@H](C(=O)N[C@H](C(=O)N[C@@H](CC(C)C)[C@@H](O)CC(=O)N[C@@H](C)C(=O)N[C@@H](CC(C)C)[C@@H](O)CC(=O)O)C(C)C)C(C)C [Pepstatin A] (Isovaleryl-VV[Sta]A[Sta]-OH) |  |  |  | 2.688 | 763.991 | -0.237 | 
7 | CC(=O)O[C@H]1C[C@@H]2CC[C@@H]3[C@H](CC[C@@]4(C)[C@H]3C[C@H]([N+]3(C)CCCCC3)[C@@H]4OC(C)=O)[C@@]2(C)C[C@@H]1N1CCCCC1 [Vecuronium bromide] |  |  |  | 0.006 | 708.114 | 0.155 | 
8 | CN1C(=O)CCS(=O)(=O)C1c1ccc(Cl)cc1 (stereo not drawn) [Chlormezanone] |  |  |  |  |  |  | B-score functional assay (human NTCP [1]; [9]): 0.286; Ranking score (human NTCP [1]; [10]): 979.274; B-score binding assay (human NTCP [2]; [11]): 1.516
9 | O=C1C(O)=C([C@H]2CC[C@H](c3ccc(Cl)cc3)CC2)C(=O)c2ccccc21 [Atovaquone] |  |  |  | -0.283 | 659.659 | 0.68 | 
10 | O=C(CCNNC(=O)c1ccncc1)NCc1ccccc1 [Nialamide] |  |  |  |  |  |  | B-score functional assay (human NTCP [1]; [9]): 0.331; Ranking score (human NTCP [1]; [10]): 907.486; B-score binding assay (human NTCP [2]; [11]): 0.697
11 | COc1ccc2cc([C@@H](C)C(=O)[O-])ccc2c1.[Na+] [(R) -Naproxen sodium salt] |  |  |  |  |  |  | B-score functional assay (human NTCP [1]): -0.341; Ranking score (human NTCP [1]): 667.638; B-score binding assay (human NTCP [2]): 0.921
12 | NS(=O)(=O)Cc1noc2ccccc12 [Zonisamide] |  |  |  |  |  |  | B-score functional assay (human NTCP [1]; [9]): 3.016; Ranking score (human NTCP [1]; [10]): 1038.21; B-score binding assay (human NTCP [2]; [11]): 0.365
13 | C[N+]1(C)CCC(OC(=O)C(O)(c2ccccc2)C2CCCC2)C1 (stereo not drawn) [Glycopyrrolate] |  |  |  | 0.403 | 820.625 | 0.143 | 
14 | CCN(CC)C(=O)C1(c2ccccc2)CC1CN.Cl (stereo not drawn) [Milnacipran hydrochloride] |  |  |  |  |  |  | B-score functional assay (human NTCP [1]; [9]): 1.822; Ranking score (human NTCP [1]; [10]): 955.465; B-score binding assay (human NTCP [2]; [11]): 0.152
15 | COc1ccc2c3c1O[C@H]1C[C@@H](O)C=C[C@@]31CCN(C)C2 [Galanthamine hydrobromide] |  |  |  | 0.072 | 808.114 | 0.486 | 
16 | COc1cc(C(=O)NC2CCCNC2)cc(OC)c1OC (stereo not drawn) [Troxipide] |  |  |  |  |  |  | B-score functional assay (human NTCP [1]; [9]): 0.286; Ranking score (human NTCP [1]; [10]): 1019.78; B-score binding assay (human NTCP [2]; [11]): 2.726
17 | CN(C)CCCN1c2ccccc2Sc2ccccc21 [Promazine hydrochloride] |  |  |  |  |  |  | B-score functional assay (human NTCP [1]): 0.194; Ranking score (human NTCP [1]): 494.272; B-score binding assay (human NTCP [2]): -0.725
18 | Cl.Clc1ccc(Cn2c(CN3CCCC3)nc3ccccc32)cc1 [Clemizole hydrochloride] | 418.626 | 2.268 | -1.618 |  |  |  | 
19 | CC(=O)O[C@]1(C(C)=O)CC[C@H]2[C@@H]3C=C(C)C4=CC(=O)CC[C@]4(C)[C@H]3CC[C@@]21C [Megestrol acetate] |  |  |  |  |  |  | B-score functional assay (human NTCP [1]; [9]): 0.476; Ranking score (human NTCP [1]; [10]): 869.581; B-score binding assay (human NTCP [2]; [11]): 0.319
20 | CO/N=C(\C(=O)N[C@@H]1C(=O)N2C(C(=O)O)=C(COC(N)=O)CS[C@H]12)c1ccco1 [Cefuroxime sodium salt] |  |  |  | 0.233 | 660.887 | -0.123 | 
21 | C[C@@]12N[C@@H](Cc3ccccc31)c1ccccc12.O=C(O)/C=C\C(=O)O [(-)-MK 801 hydrogen maleate] |  |  |  | -0.004 | 690.814 | 0.115 | 

Row | Compound | Ranking score (human NTCP [1]; [3]) | B-score functional assay (human NTCP [1]; [4]) | B-score binding assay (human NTCP [2]; [5]) | B-score functional assay (human NTCP [1]; [6]) | Ranking score (human NTCP [1]; [7]) | B-score binding assay (human NTCP [2]; [8]) | further results
22 | CC(=O)/N=c1/sc(S(N)(=O)=O)nn1C [Methazolamide] |  |  |  |  |  |  | B-score functional assay (human NTCP [1]; [9]): 2.368; Ranking score (human NTCP [1]; [10]): 849.129; B-score binding assay (human NTCP [2]; [11]): -0.041
23 | Nc1ccc(S(=O)(=O)Nc2nccs2)cc1 [Sulfathiazole] | 386.996 | -1.223 | 0.039 |  |  |  | 
24 | Clc1cnccn1 [2-Chloropyrazine] |  |  |  | 1.648 | 812.047 | -0.068 | 
25 | O=C1NCC2(CCN(CCc3ccccc3)CC2)O1 [Fenspiride hydrochloride] |  |  |  | 0.107 | 788.391 | 0.26 | 
26 | Cc1cccc(C)c1NC(=O)C(C)N (stereo not drawn) [Tocainide hydrochloride] |  |  |  |  |  |  | B-score functional assay (human NTCP [1]; [9]): 1.054; Ranking score (human NTCP [1]; [10]): 1036.23; B-score binding assay (human NTCP [2]; [11]): 0.83
27 | CC[C@H]1OC(=O)[C@H](C)[C@@H](O[C@H]2C[C@@](C)(OC)[C@@H](O)[C@H](C)O2)[C@H](C)[C@@H](O[C@@H]2O[C@H](C)C[C@H](N(C)C)[C@H]2O)[C@](C)(O)C[C@@H](C)C(=O)[C@H](C)[C@@H](O)[C@]1(C)O [Erythromycin] |  |  |  |  |  |  | B-score functional assay (human NTCP [1]; [9]): 3.026; Ranking score (human NTCP [1]; [10]): 1129.71; B-score binding assay (human NTCP [2]; [11]): 0.93
28 | CC1COc2c(N3CCN(C)CC3)c(F)cc3c(=O)c(C(=O)O)cn1c23 (stereo not drawn) [Ofloxacin] |  |  |  |  |  |  | B-score functional assay (human NTCP [1]): 1.32; Ranking score (human NTCP [1]): 1023.33; B-score binding assay (human NTCP [2]): 0.588
29 | C[N+](C)(CCOc1ccccc1)Cc1ccccc1.O=C([O-])c1cc2ccccc2cc1O [Bephenium hydroxynaphthoate] | 452.073 | -0.101 | -0.482 |  |  |  | 
30 | O=C1O[C@H]([C@@H](O)CO)C(O)=C1O [Ascorbic acid] | 365.334 | -1.672 | 0.271 |  |  |  | 
31 | CC(C(=O)O)c1ccc(N2Cc3ccccc3C2=O)cc1 (stereo not drawn) [Indoprofen] |  |  |  |  |  |  | B-score functional assay (human NTCP [1]; [9]): 0.788; Ranking score (human NTCP [1]; [10]): 897.998; B-score binding assay (human NTCP [2]; [11]): 0.209
32 | CN(C)CCOC(c1ccc(Cl)cc1)c1ccccn1.O=C(O)/C=C\C(=O)O (stereo not drawn) [Carbinoxamine maleate salt] | 433.532 | 3.2 | -1.565 |  |  |  | 
33 | C[C@H](N)[C@H](O)c1ccc(O)c(O)c1 [Levonordefrin] | 346.693 | 0.177 | -1.559 |  |  |  | 
34 | Nc1nc(=S)c2ncn([C@@H]3O[C@H](CO)[C@@H](O)[C@H]3O)c2[nH]1 [Thioguanosine] | 366.332 | -0.426 | -0.655 |  |  |  | 
35 | COc1ccc(CN2CCN(C(c3ccc(F)cc3)c3ccc(F)cc3)CC2)c(OC)c1OC.Cl.Cl [Lomerizine hydrochloride] | 328.713 | -0.214 | -1.084 |  |  |  | 
36 | COCCc1ccc(OCC(O)CNC(C)C)cc1.COCCc1ccc(OCC(O)CNC(C)C)cc1.O=C(O)C(O)C(O)C(=O)O (racemic) [Metoprolol-(+,-) (+)-tartrate salt] | 295.567 | -0.726 | -0.835 |  |  |  | 
37 | CCOC1O[C@H]([C@@H](COCc2ccccc2)OCc2ccccc2)[C@H](OCc2ccccc2)[C@H]1O (stereo partly drawn) [Tribenoside] | 300.985 | -1.789 | -0.023 |  |  |  | 
38 | Norgestrel-(-)-D |  |  |  | 0.036 | 704.84 | 0.069 | 
39 | C#C[C@]1(O)CC[C@H]2[C@@H]3CCC4=CC(=O)CCC4=C3C=C[C@@]21CC [Gestrinone] | 385.482 | -0.358 | -0.596 |  |  |  | 
40 | CCOC(=O)/C=C(C)/C=C/C=C(C)/C=C/c1c(C)cc(OC)c(C)c1C [Etretinate] |  |  |  | 0.504 | 712.48 | -0.079 | 
41 | Nc1cc(-c2ccncc2)c[nH]c1=O [Amrinone] | 350.268 | -1.236 | -0.056 |  |  |  | 
42 | Cn1cnc([N+](=O)[O-])c1Sc1ncnc2nc[nH]c12 [Azathioprine] |  |  |  |  |  |  | B-score functional assay (human NTCP [1]; [9]): 1.292; Ranking score (human NTCP [1]; [10]): 1083.5; B-score binding assay (human NTCP [2]; [11]): 1.035
